According to PubChem BioAssay (NCI):
Several values for one entry are separate records, joined by “and”; a condition that tells them apart may be missing. Equal values may be shown once.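 Cultured in 96-well plates, cells were exposed to test compound for 48 hours across five concentrations. Here, GI50 denotes the concentration required for 50% inhibition of growth. TGI: concentration producing complete growth inhibition.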

Tested on: MDA-MB-468 breast
Assay: DTP human tumour cell line panel, 48 h

SMILES	GI50	TGI
C[C@@H]1C[C@H](C)CN(S(=O)(=O)c2ccc3c(NO)c4ccc(S(=O)(=O)N5C[C@H](C)C[C@H](C)C5)cc4c(N=O)c3c2)C1	0.154 µM	0.312 µM
Cc1nc(-c2ccccc2)n2nc(NCCCN3CCOCC3)ncc12	> 5.33 µM	> 25 µM
COc1cccc(/C(C#N)=C/c2nc3c(N4CCOCC4)nc(Cl)nc3n2C)c1	0.497 µM	1.87 µM
O=[N+]([O-])c1cc(Cl)c2[nH]c3c(Cl)cc([N+](=O)[O-])cc3c2c1	0.169 µM	2.26 µM
COc1ccc(-c2ccncc2)cc1C(N)=O	> 25 µM	> 25 µM
O=C(NOC[C@H](O)CO)c1ccc(F)c(F)c1Nc1ccc(I)cc1F	13.9 µM	> 100 µM
Nc1nonc1-c1nc2cnccc2n1C1CC1	1.96 µM	10.1 µM
COc1cc(F)c(F)c(Nc2ccc(I)cc2F)c1NS(=O)(=O)C1(C[C@H](O)CO)CC1	> 5.95 µM	> 10 µM
Cc1nc(N)nc2c1CCC(O)S2 (stereo unspecified)	2.74 µM	13 µM
O=C1/C(=C/c2cccc(Br)c2)COc2ccc(O)cc21	1.75 µM	4.33 µM
COc1cc2ncn(-c3cc(OCc4ccccc4C(F)(F)F)c(C(=O)N(C)C)s3)c2cc1OC	7.66 µM	> 14.7 µM
CC(C)c1c(-c2ccccc2)nc2c(C#N)c[nH]n2c1=O	19.1 µM	50.9 µM
CCC(O)c1ccc(Br)cc1NC(=O)c1cccc(Cl)c1 (stereo unspecified)	20.3 µM	56.5 µM
CS(=O)(=O)CCNCc1cc(-c2cc3c(Nc4ccc(OCc5cccc(F)c5)c(Cl)c4)ncnc3s2)cs1	0.569 µM	4.13 µM
COc1ccc(/C=C/C(=O)/C=C/c2cc3ccccc3[nH]c2=O)cc1	2.32 µM	6.59 µM
COc1cc(OC)c(C(=O)/C=C/c2cc3c(cc2OCc2ccccc2)OC(C)(C)CC3)cc1CC=C(C)C	1.86 µM	7.84 µM
COc1ccc(-c2cs/c(=N\N=C\c3ccc(O)cc3O)n2/N=C/c2ccc(O)cc2O)cc1	1.96 µM	5.68 µM

SMILES	GI50	TGI
CC(C)c1cnn2c(NCc3ccccc3)cc(NC[C@H]3CCNC[C@@H]3O)nc12	0.381 µM and 0.519 µM	1.79 µM and 2.33 µM
CC[C@H](Nc1ncnc2nc[nH]c12)c1nc2cccc(F)c2c(=O)n1-c1ccccc1	2.1 µM	10.4 µM
O=C(/C=C/C12c3ccccc3C(c3ccccc31)C1C(=O)NC(=O)C12)c1ccc(Cl)cc1Cl (stereo unspecified)	1.96 µM	4.13 µM
COc1cc2nc(SCc3cc(OC)c(OC)c(OC)c3)n(Cc3ccccc3)c(=O)c2cc1OC	0.307 µM	1.91 µM
CC(=O)c1ccc2c(c1)C1C=CCC1[C@H](c1cc3c(cc1Br)OCO3)N2 (stereo partly specified)	0.308 µM	–
CC(=O)Oc1ccc(C23c4ccccc4C2(OC(C)=O)c2cc(OC(C)=O)ccc23)cc1 (stereo unspecified)	0.57 µM	5.02 µM
CCOC(=O)Nc1nc2ccc(OC)cc2s1	69.4 µM	> 100 µM
Cn1c(C(=O)c2ccncc2)cc2ccccc21	32.3 µM	> 100 µM
FC(F)(c1ccc2ncccc2c1)c1nnc2ccc(-c3ccncc3)nn12	53.5 µM	> 100 µM
CC(C)Nc1cc(-c2c[nH]c(C(=O)N[C@H](CO)c3cccc(Cl)c3)c2)c(Cl)cn1	3.54 µM and 5.12 µM	18.3 µM and > 10 µM
COc1ccc2c(=O)cc(-c3ccccc3)[nH]c2c1	0.887 µM	> 100 µM
Cc1ncc(C(=O)Nc2ccc(CN3CCN(C)CC3)c(C(F)(F)F)c2)cc1C#Cc1cnc2cccnn12	1.11 µM	3.41 µM
CCCCCCCCCCCCCCCCCC1=NC(C)(C)CN1CC(C)O (stereo unspecified)	12.1 µM	24.4 µM
O=c1c2cc(F)ccc2sc2c(N3CCNCC3)nc3ccc(F)cc3c12	1.58 µM	3.05 µM
CN(Cc1cnc2nc(N)nc(N)c2n1)c1ccc(C(=O)N[C@@H](CCC(=O)O)C(=O)O)cc1	–	> 250 µM
O=S(=O)(NCCNc1nccc(-c2c(-c3ccc(F)c(O)c3)nc3sccn23)n1)c1ccc(F)cc1	2.97 µM	25.5 µM
CCCCCCCCOC(=O)CC[C@@H](C)[C@H]1CC[C@H]2[C@@H]3[C@H](OC(=O)CCN)C[C@@H]4C[C@H](OC(=O)CCN)CC[C@]4(C)[C@H]3C[C@H](OC(=O)CCN)[C@]12C	2.49 µM	7.17 µM
